Structures can show the parent of a compound that is named as a salt.
Tests used:
[1] = tested on: undesired urotoxic side effects caused by cytostatically active alkylating agents; conditions: background, cited from earlier work; for protective activity against cytostatically active alkylating agents: cysteine compared with salts of mercapto alkane sulfonic acids, cystine = corresponding disulfide; for effect of introducing solutions into the urinary bladder by catheter: instillation, in particular cytostatics at very high dosages
[2] = tested on: kidneys, urinary tracts and urinary bladder; test: urotoxic side effects in cancer patients treated with ifosfamide (hematuria, albuminuria, damage to kidney and urinary bladder); type: in vivo, human; conditions: for hematuria under ifosfamide therapy without thiol/disulfide protection: 5 times per day, 5 days
Protocol: In accordance with the known practice of therapy a patient and suffering from a theratoid carcinoma of the testicle, at first is subjected to irradiation and thereafter is treated with ifosfamide [i.e. 2-(N-2-chloroethyl-amino)-3-(2-chloroethyl)-2-oxo-1,3,2-oxazaphosphorinane] at 5 times per day, each time with 60 mg./kg. intravenously and at 5 subsequent days. The patient is simultaneously hydrated by administration of 4 liters of water spread over the day and is alkalinized by administration of hexapotassium hexasodium pentacitrate hydrate complex. […] This necessitated immediate rupture of the therapy. After a recovery period of 14 days, the therapy is repeated. However, 60 mg/kg. of the disodium salt of 2,2'-dithiodi-(ethane sulfonic acid) is administered intravenously and simultaneously with each dose of 60 mg/kg. of ifosfamide. The patient is controlled daily for micro- and […] and for albuminuria.
In another patient suffering from the same tumor, the therapy at first is started with the oral administration of 60 mg./kg. of the disodium salt of 2.2'-dithiodi-(ethane sulfonic acid). Two hours thereafter, 60 mg./kg. of ifosfamide are administered intravenously. The same treatment, i.e. the combination of an oral preadministration of the disodium salt of 2,2'-dithiodi-(ethane sulfonic acid) and a subsequent intravenous administration of 60 mg./kg. of ifosfamide is repeated at 5 subsequent days. […] In both the above treatments a moderate hydration (2 liters per day) has been carried out. The treatment rendered superfluous alkalinization as well as the most burdensome instillation of mercapto group containing compounds into the bladder of the patient by means of a catheter.
According to the general experience with such patients, there occurs very readily […] despite application of all known prophylactic treatments such as hydration, alkalinization or instillation of mercapto group containing compounds into the urinary bladder.
(§1) In accordance with the known practice of therapy, a patient and suffering from a cancer of the ovary, at first is subjected to irradiation and thereafter is treated with ifosfamide [i.e. 2-(N-2-chloroethyl-amino)-3-(2-chloroethyl)-2-oxo-1,3,2-oxazaphosphorinane] at 5 times per day, each time with 60 mg./kg. intravenously and at 5 subsequent days. […] After a recovery period of 14 days the therapy is repeated. However, 35 mg./kg. of the sodium salt of 2-mercapto ethane sulfonic acid is administered intravenously and simultaneously with each dose of 60 mg./kg. of ifosfamide, 60, 120 and, respectively, 180 minutes after this intravenous injection 45 mg. of the disodium salt of 2,2'-dithiodi-(ethanesulfonic acid) each time are administered to the patient. The patient is controlled daily for micro- and macrohematuria and for albuminuria. […] The examination of the urine upon cytotoxic activity at varying times after administration of ifosfamide also was negative.
The same protective treatment was effected with the same favourable results in patients suffering from other cancer deceases such as parvicellular bronchial carcinoma or pancreatic carcinoma.

[3] = examination of the urine upon cytotoxic activity / cytostatically active metabolites after administration of ifosfamide; type: in vivo, human; conditions: Example 4: same combination with sodium salt of 2-mercapto ethane sulfonic acid
Protocol: as §1

## N[C@@H](CSSC[C@H](N)C(=O)O)C(=O)O [cystine]
[1]
  protective activity against cytostatically active alkylating agents: does not have any such protective activity

## O=S(=O)(O)CCSSCCS(=O)(=O)O [disodium salt of 2,2'-dithiodi-(ethanesulfonic acid)]
[2]; Example 1: 60 mg/kg i.v. simultaneously with each dose of 60 mg/kg ifosfamide, same patient after 14 days recovery
  erythrocytes, albumina or granular cylindrical cells in the urine: At no time during the treatment erythrocytes, albumina or granular cylindrical cells were found in the urine of the patient
[2]; Example 2: 60 mg/kg oral, two hours before ifosfamide 60 mg/kg i.v., 5 subsequent days, moderate hydration 2 liters per day
  damage to kidney or urinary bladder, hematuria, albumina or granular cylindrical cells in the urine: no indication of any damage to the kidney or the urinary bladder or of hematuria or of albumina or granular cylindrical cells in the urine of the patient at any time during the treatment
[2]; Example 3: 60 mg/kg i.v. simultaneously with ifosfamide 60 mg/kg i.v. single dose over 5 days, patient sensibilized by regional radiotherapy
  damage to the kidneys and the urinary bladder: there did not occur any damage to the kidneys and the urinary bladder
[2]; Example 4: 35 mg/kg sodium salt of 2-mercapto ethane sulfonic acid i.v. simultaneously with ifosfamide 60 mg/kg, then 45 mg disodium salt of 2,2'-dithiodi-(ethanesulfonic acid) at 60, 120 and 180 minutes
  hematuria or albuminuria: no indication of hematuria or albuminuria
[3]; after ifosfamide
  cytostatically active metabolites in the urine: No cytostatically active metabolites were found in the urine
[3]; varying times after ifosfamide
  cytotoxic activity of the urine: negative

## O=P1(NCCCl)OCCCN1CCCl (stereo not shown) [ifosfamide, 2-(N-2-chloroethyl-amino)-3-(2-chloroethyl)-2-oxo-1,3,2-oxazaphosphorinane]
[2]; Example 1: ifosfamide 60 mg/kg i.v., with hydration 4 liters and alkalinization, testicular carcinoma patient
  hematuria under ifosfamide therapy without thiol/disulfide protection: macrohematuria already on the fourth day
[2]; Example 4: ifosfamide 60 mg/kg i.v., with hydration and alkalinization, patient with cancer of the ovary
  hematuria under ifosfamide therapy without thiol/disulfide protection: microhematuria

## CC(=O)N[C@@H](CS)C(=O)O [N-acetylcysteine]
[1]; instillation into urinary bladder with cyclophosphamide and ifosfamide at very high dosages
  clinical effectiveness of the instillation prophylaxis: by no means was satisfactory
[1]
  effect of introducing solutions into the urinary bladder by catheter: very limited

## N[C@@H](CS)C(=O)O [cysteine]
[1]
  protective activity against cytostatically active alkylating agents: limited but distinct protective activity
  effect of introducing solutions into the urinary bladder by catheter: very limited
